Literature values in publication PMC8513935.

Legend:
[1] = log P octanol/water from commercial databases, averaged (the ESI); conditions: Octanol (wet), 25 C
[2] = experimental, compiled by the authors from the literature (the ESI cites the sources)
[3] = derived by the authors as gas->solvent minus gas->water (a hypothetical dry solvent; the ESI), not a two-phase measurement

CC(C)C(C)C(C)C
log K of transfer, water to solvent [1]: 4.8 log10 K
log K of transfer, gas to solvent ([2]; 1,2-Dichloroethane, 25 C): 3.19 log10 K
log K of transfer, gas to solvent ([2]; Acetonitrile, 25 C): 2.51 log10 K
log K of transfer, gas to solvent ([2]; Butan-1-ol, 25 C): 3.1 log10 K
log K of transfer, gas to solvent ([2]; Butanone, 25 C): 3.22 log10 K
log K of transfer, gas to solvent ([2]; Butyronitrile, 25 C): 3.01 log10 K
log K of transfer, gas to solvent ([2]; CCl4, 25 C): 3.72 log10 K
log K of transfer, gas to solvent ([2]; Chlorobenzene, 25 C): 3.69 log10 K
log K of transfer, gas to solvent ([2]; Chloroform, 25 C): 3.63 log10 K
log K of transfer, gas to solvent ([2]; Cyclohexanone, 25 C): 3.15 log10 K
log K of transfer, gas to solvent ([2]; Dichloromethane, 25 C): 3.47 log10 K
log K of transfer, gas to solvent ([2]; Ethanol, 25 C): 2.94 log10 K
log K of transfer, gas to solvent ([2]; Hexadecane, 25 C): 3.48 log10 K
log K of transfer, gas to solvent ([2]; Hexane, 25 C): 3.68 log10 K
log K of transfer, gas to solvent ([2]; Methanol, 25 C): 2.66 log10 K
log K of transfer, gas to solvent ([2]; Perfluoroalkane, 25 C): 2.45 log10 K
log K of transfer, gas to solvent ([2]; Propan-1-ol, 25 C): 2.95 log10 K
log K of transfer, gas to solvent ([2]; Propan-2-ol, 25 C): 2.95 log10 K
log K of transfer, gas to solvent ([2]; Propanone, 25 C): 3.03 log10 K
log K of transfer, gas to solvent ([2]; Propionitrile, 25 C): 2.83 log10 K
log K of transfer, gas to solvent ([2]; Tetrahydrofuran, 25 C): 3.59 log10 K
log K of transfer, gas to solvent ([2]; Water, 25 C): -1.88 log10 K
log K of transfer, water to solvent ([3]; 1,2-Dichloroethane, 25 C): 5.07 log10 K
log K of transfer, water to solvent ([3]; Acetone, 25 C): 4.91 log10 K
log K of transfer, water to solvent ([3]; Acetonitrile, 25 C): 4.39 log10 K
log K of transfer, water to solvent ([3]; Butan-1-ol, 25 C): 4.98 log10 K
log K of transfer, water to solvent ([3]; Butanone, 25 C): 5.1 log10 K
log K of transfer, water to solvent ([3]; Butyronitrile, 25 C): 4.89 log10 K
log K of transfer, water to solvent ([3]; CCl4, 25 C): 5.6 log10 K
log K of transfer, water to solvent ([3]; Chlorobenzene, 25 C): 5.57 log10 K
log K of transfer, water to solvent ([3]; Chloroform, 25 C): 5.51 log10 K
log K of transfer, water to solvent ([3]; Cyclohexanone, 25 C): 5.03 log10 K
log K of transfer, water to solvent ([3]; Dichloromethane, 25 C): 5.35 log10 K
log K of transfer, water to solvent ([3]; Ethanol, 25 C): 4.82 log10 K
log K of transfer, water to solvent ([3]; Hexadecane, 25 C): 5.36 log10 K
log K of transfer, water to solvent ([3]; Hexane, 25 C): 5.56 log10 K
log K of transfer, water to solvent ([3]; Methanol, 25 C): 4.54 log10 K
log K of transfer, water to solvent ([3]; Perfluoroalkane, 25 C): 4.33 log10 K
log K of transfer, water to solvent ([3]; Propan-1-ol, 25 C): 4.83 log10 K
log K of transfer, water to solvent ([3]; Propan-2-ol, 25 C): 4.83 log10 K
log K of transfer, water to solvent ([3]; Propionitrile, 25 C): 4.71 log10 K
log K of transfer, water to solvent ([3]; Tetrahydrofuran, 25 C): 5.47 log10 K

CCN(CC)CC
log K of transfer, water to solvent [1]: 1.45 log10 K
log K of transfer, gas to solvent ([2]; 1,2-Dichloroethane, 25 C): 3.21 log10 K
log K of transfer, gas to solvent ([2]; Butan-1-ol, 25 C): 3.56 log10 K
log K of transfer, gas to solvent ([2]; Butan-2-ol, 25 C): 3.53 log10 K
log K of transfer, gas to solvent ([2]; Butanone, 25 C): 3.05 log10 K
log K of transfer, gas to solvent ([2]; CCl4, 25 C): 3.54 log10 K
log K of transfer, gas to solvent ([2]; Chlorobenzene, 25 C): 3.35 log10 K
log K of transfer, gas to solvent ([2]; Chloroform, 25 C): 4.22 log10 K
log K of transfer, gas to solvent ([2]; Cyclohexanone, 25 C): 3.01 log10 K
log K of transfer, gas to solvent ([2]; Diethyl Ether, 25 C): 3.26 log10 K
log K of transfer, gas to solvent ([2]; Ethanol, 25 C): 3.57 log10 K
log K of transfer, gas to solvent ([2]; Hexadecane, 25 C): 3.04 log10 K
log K of transfer, gas to solvent ([2]; Hexane, 25 C): 3.29 log10 K
log K of transfer, gas to solvent ([2]; Methanol, 25 C): 3.84 log10 K
log K of transfer, gas to solvent ([2]; Pentan-1-ol, 25 C): 3.64 log10 K
log K of transfer, gas to solvent ([2]; Propan-1-ol, 25 C): 3.5 log10 K
log K of transfer, gas to solvent ([2]; Propan-2-ol, 25 C): 3.31 log10 K
log K of transfer, gas to solvent ([2]; Propanone, 25 C): 2.97 log10 K
log K of transfer, gas to solvent ([2]; Tetrahydrofuran, 25 C): 3.37 log10 K
log K of transfer, gas to solvent ([2]; Water, 25 C): 2.36 log10 K
log K of transfer, water to solvent ([3]; 1,2-Dichloroethane, 25 C): 0.85 log10 K
log K of transfer, water to solvent ([3]; Acetone, 25 C): 0.61 log10 K
log K of transfer, water to solvent ([3]; Butan-1-ol, 25 C): 1.2 log10 K
log K of transfer, water to solvent ([3]; Butan-2-ol, 25 C): 1.17 log10 K
log K of transfer, water to solvent ([3]; Butanone, 25 C): 0.69 log10 K
log K of transfer, water to solvent ([3]; CCl4, 25 C): 1.18 log10 K
log K of transfer, water to solvent ([3]; Chlorobenzene, 25 C): 0.99 log10 K
log K of transfer, water to solvent ([3]; Chloroform, 25 C): 1.86 log10 K
log K of transfer, water to solvent ([3]; Cyclohexanone, 25 C): 0.654 log10 K
log K of transfer, water to solvent ([3]; Diethyl Ether, 25 C): 0.9 log10 K
log K of transfer, water to solvent ([3]; Ethanol, 25 C): 1.21 log10 K
log K of transfer, water to solvent ([3]; Hexadecane, 25 C): 0.68 log10 K
log K of transfer, water to solvent ([3]; Hexane, 25 C): 0.93 log10 K
log K of transfer, water to solvent ([3]; Methanol, 25 C): 1.48 log10 K
log K of transfer, water to solvent ([3]; Pentan-1-ol, 25 C): 1.28 log10 K
log K of transfer, water to solvent ([3]; Propan-1-ol, 25 C): 1.14 log10 K
log K of transfer, water to solvent ([3]; Propan-2-ol, 25 C): 0.95 log10 K
log K of transfer, water to solvent ([3]; Tetrahydrofuran, 25 C): 1.01 log10 K

CCCCCCCCCCO
log K of transfer, water to solvent [1]: 4.12 log10 K
log K of transfer, gas to solvent ([2]; Decan-1-ol, 25 C): 7.03 log10 K
log K of transfer, gas to solvent ([2]; Hexadecane, 25 C): 5.61 log10 K
log K of transfer, gas to solvent ([2]; Hexane, 25 C): 5.64 log10 K
log K of transfer, gas to solvent ([2]; Propan-1-ol, 25 C): 7.13 log10 K
log K of transfer, gas to solvent ([2]; Propan-2-ol, 25 C): 7.16 log10 K
log K of transfer, gas to solvent ([2]; Water, 25 C): 2.67 log10 K
log K of transfer, water to solvent ([3]; Decan-1-ol, 25 C): 4.36 log10 K
log K of transfer, water to solvent ([3]; Hexadecane, 25 C): 2.94 log10 K
log K of transfer, water to solvent ([3]; Hexane, 25 C): 2.97 log10 K
log K of transfer, water to solvent ([3]; Propan-1-ol, 25 C): 4.46 log10 K
log K of transfer, water to solvent ([3]; Propan-2-ol, 25 C): 4.49 log10 K

O=C1CCCC1
log K of transfer, water to solvent [1]: 0.38 log10 K
log K of transfer, gas to solvent ([2]; 1,2-Dichloroethane, 25 C): 4.59 log10 K
log K of transfer, gas to solvent ([2]; CCl4, 25 C): 4.06 log10 K
log K of transfer, gas to solvent ([2]; Di-n-butyl ether, 25 C): 3.53 log10 K
log K of transfer, gas to solvent ([2]; Hexadecane, 25 C): 3.22 log10 K
log K of transfer, gas to solvent ([2]; Octan-1-ol, 25 C): 3.67 log10 K
log K of transfer, gas to solvent ([2]; Water, 25 C): 3.45 log10 K
log K of transfer, water to solvent ([3]; 1,2-Dichloroethane, 25 C): 1.14 log10 K
log K of transfer, water to solvent ([3]; CCl4, 25 C): 0.61 log10 K
log K of transfer, water to solvent ([3]; Di-n-butyl ether, 25 C): 0.08 log10 K
log K of transfer, water to solvent ([3]; Hexadecane, 25 C): -0.229 log10 K
log K of transfer, water to solvent ([3]; Octan-1-ol(dry), 25 C): 0.22 log10 K

CC(C)CCC(C)C
log K of transfer, water to solvent [1]: 4.8 log10 K
log K of transfer, gas to solvent ([2]; 1,2-Dichloroethane, 25 C): 3.1 log10 K
log K of transfer, gas to solvent ([2]; Acetonitrile, 25 C): 2.39 log10 K
log K of transfer, gas to solvent ([2]; Butanone, 25 C): 3.14 log10 K
log K of transfer, gas to solvent ([2]; Butyronitrile, 25 C): 2.92 log10 K
log K of transfer, gas to solvent ([2]; CCl4, 25 C): 3.66 log10 K
log K of transfer, gas to solvent ([2]; Chlorobenzene, 25 C): 3.64 log10 K
log K of transfer, gas to solvent ([2]; Chloroform, 25 C): 3.56 log10 K
log K of transfer, gas to solvent ([2]; Cyclohexanone, 25 C): 3.06 log10 K
log K of transfer, gas to solvent ([2]; Dichloromethane, 25 C): 3.4 log10 K
log K of transfer, gas to solvent ([2]; Hexadecane, 25 C): 3.31 log10 K
log K of transfer, gas to solvent ([2]; Hexane, 25 C): 3.64 log10 K
log K of transfer, gas to solvent ([2]; Perfluoroalkane, 25 C): 2.37 log10 K
log K of transfer, gas to solvent ([2]; Propan-2-ol, 25 C): 2.87 log10 K
log K of transfer, gas to solvent ([2]; Propanone, 25 C): 2.95 log10 K
log K of transfer, gas to solvent ([2]; Propionitrile, 25 C): 2.76 log10 K
log K of transfer, gas to solvent ([2]; Tetrahydrofuran, 25 C): 3.53 log10 K
log K of transfer, gas to solvent ([2]; Toluene, 25 C): 3.47 log10 K
log K of transfer, gas to solvent ([2]; Water, 25 C): -2.02 log10 K
log K of transfer, water to solvent ([3]; 1,2-Dichloroethane, 25 C): 5.12 log10 K
log K of transfer, water to solvent ([3]; Acetone, 25 C): 4.97 log10 K
log K of transfer, water to solvent ([3]; Acetonitrile, 25 C): 4.41 log10 K
log K of transfer, water to solvent ([3]; Butanone, 25 C): 5.16 log10 K
log K of transfer, water to solvent ([3]; Butyronitrile, 25 C): 4.94 log10 K
log K of transfer, water to solvent ([3]; CCl4, 25 C): 5.68 log10 K
log K of transfer, water to solvent ([3]; Chlorobenzene, 25 C): 5.66 log10 K
log K of transfer, water to solvent ([3]; Chloroform, 25 C): 5.58 log10 K
log K of transfer, water to solvent ([3]; Cyclohexanone, 25 C): 5.08 log10 K
log K of transfer, water to solvent ([3]; Dichloromethane, 25 C): 5.42 log10 K
log K of transfer, water to solvent ([3]; Hexadecane, 25 C): 5.33 log10 K
log K of transfer, water to solvent ([3]; Hexane, 25 C): 5.66 log10 K
log K of transfer, water to solvent ([3]; Perfluoroalkane, 25 C): 4.39 log10 K
log K of transfer, water to solvent ([3]; Propan-2-ol, 25 C): 4.89 log10 K
log K of transfer, water to solvent ([3]; Propionitrile, 25 C): 4.78 log10 K
log K of transfer, water to solvent ([3]; Tetrahydrofuran, 25 C): 5.55 log10 K
log K of transfer, water to solvent ([3]; Toluene, 25 C): 5.49 log10 K

CCC(C)C
log K of transfer, water to solvent [1]: 3.19 log10 K
log K of transfer, gas to solvent ([2]; 2-Methylpropan-2-ol, 25 C): 1.88 log10 K
log K of transfer, gas to solvent ([2]; Cyclohexanone, 25 C): 1.89 log10 K
log K of transfer, gas to solvent ([2]; Hexadecane, 25 C): 2.01 log10 K
log K of transfer, gas to solvent ([2]; Water, 25 C): -1.75 log10 K
log K of transfer, water to solvent ([3]; 2-Methylpropan-2-ol, 25 C): 3.63 log10 K
log K of transfer, water to solvent ([3]; Cyclohexanone, 25 C): 3.64 log10 K
log K of transfer, water to solvent ([3]; Hexadecane, 25 C): 3.76 log10 K
